ChEMBL document CHEMBL1201862, “PubChem BioAssay data set” (2004)
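Five concentrations, 48 hours, 96-well plates. Here, GI50 denotes the concentration required for 50% inhibition of growth.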 Activity calls are given as the source filed them. No stated cut-off is given here; in the data, active = GI50 up to about 1.1 µM and inactive = higher.

Key:
Assay in all cases: NCI anticancer screen, dose series, 48 h
786-0 = test system: 786-0
A549 = test system: A549
COLO 205 = test system: COLO 205
EKVX = test system: EKVX
HT-29 = test system: HT-29
K562 = test system: K562
LOX IMVI = test system: LOX IMVI
MCF7 = test system: MCF7
MDA-N = test system: MDA-N
NCI-H23 = test system: NCI-H23
NCI-H460 = test system: NCI-H460
OVCAR-5 = test system: OVCAR-5
OVCAR-8 = test system: OVCAR-8
SK-MEL-28 = test system: SK-MEL-28
SK-MEL-2 = test system: SK-MEL-2
SK-OV-3 = test system: SK-OV-3
SNB-75 = test system: SNB-75
TK-10 = test system: TK-10
U-251 = test system: U-251
NCI-H226 = test system: NCI-H226

Measured: GI50

CCOC(=O)c1c2ccccc2n2c(N)c(C(N)=O)nnc12
inactive: 786-0 21.9 µM | A549 > 100 µM | COLO 205 > 100 µM | EKVX 18 µM | HT-29 > 100 µM | K562 > 100 µM | LOX IMVI 28.2 µM | MCF7 17.7 µM | MDA-N > 100 µM | NCI-H23 16.7 µM | NCI-H460 50.4 µM | OVCAR-5 > 100 µM | OVCAR-8 16.1 µM | SK-MEL-28 > 100 µM | SK-MEL-2 20.5 µM | SK-OV-3 13.9 µM | SNB-75 11.7 µM | TK-10 11.3 µM | U-251 15.2 µM

CCCCCCCCCCCCCCCCCCOc1ccc(/C=C/C2=[N+](CCCl)CCO2)cc1
inactive: 786-0 > 100 µM | A549 > 100 µM | COLO 205 70.1 µM | EKVX > 100 µM | HT-29 > 100 µM | K562 > 100 µM | LOX IMVI > 100 µM | MCF7 > 100 µM | MDA-N > 100 µM | NCI-H460 > 100 µM | OVCAR-5 95.7 µM | OVCAR-8 > 100 µM | SK-MEL-28 > 100 µM | SK-MEL-2 > 100 µM | SK-OV-3 > 100 µM | SNB-75 3.54 µM | TK-10 > 100 µM | U-251 50.4 µM

C[C@@H](CO)C1=CC(C#C[Si](C)(C)C)N(C(=O)Oc2ccccc2)c2ccccc21 (stereo not given in full)
inactive: 786-0 17.2 µM | A549 20.9 µM | COLO 205 23.8 µM | EKVX 23.3 µM | HT-29 16 µM | K562 1.49 µM | LOX IMVI 17.6 µM | MDA-N 7.08 µM | NCI-H226 20 µM | NCI-H23 6.75 µM | NCI-H460 18.1 µM | OVCAR-5 19.8 µM | OVCAR-8 17.5 µM | SK-MEL-28 18.2 µM | SK-MEL-2 16.9 µM | SK-OV-3 23.3 µM | SNB-75 10.1 µM | TK-10 31.1 µM | U-251 18.3 µM

O=CC(O)C(O)C(O)C(O)COC(=O)NCCCCC(=O)C(F)(F)C(F)(F)C(F)(F)C(F)(F)C(F)(F)C(F)(F)C(F)(F)F (stereo not given)
inactive: 786-0 32.7 µM | A549 28.8 µM | COLO 205 30.5 µM | HT-29 32.7 µM | K562 11.8 µM | LOX IMVI 15.3 µM | MCF7 19.1 µM | MDA-N 27.8 µM | NCI-H23 32.9 µM | NCI-H460 26.9 µM | OVCAR-5 17.2 µM | SK-MEL-28 43.7 µM | SK-MEL-2 27.6 µM | SK-OV-3 21.7 µM | SNB-75 22.9 µM | TK-10 70.5 µM | U-251 > 10 µM

C=CCCC1(CCP(=O)(c2ccccc2)c2ccccc2)OCCO1
inactive: 786-0 > 100 µM | A549 > 100 µM | COLO 205 > 100 µM | EKVX > 100 µM | HT-29 > 100 µM | K562 > 100 µM | LOX IMVI > 100 µM | MCF7 > 100 µM | MDA-N > 100 µM | NCI-H23 > 100 µM | NCI-H460 > 100 µM | OVCAR-5 > 100 µM | OVCAR-8 > 100 µM | SK-MEL-28 > 100 µM | SK-MEL-2 > 100 µM | SNB-75 > 100 µM | TK-10 > 100 µM | U-251 > 100 µM

CC(=O)N1c2ccccc2[C@H]2CCc3c([nH]c4ccccc34)[C@H]21
inactive: 786-0 15 µM | A549 17.2 µM | COLO 205 13.2 µM | EKVX 14.5 µM | HT-29 8.11 µM | K562 8.57 µM | LOX IMVI 11.6 µM | MDA-N 18.5 µM | NCI-H226 13.9 µM | NCI-H23 9.53 µM | NCI-H460 8.39 µM | OVCAR-5 26.9 µM | OVCAR-8 25.3 µM | SK-MEL-28 14.7 µM | SK-MEL-2 19.2 µM | SK-OV-3 28.3 µM | SNB-75 18.4 µM | TK-10 41.5 µM | U-251 12.7 µM

c1ccc(C2(c3ccccc3)S/C(=C3/SC(c4ccccc4)(c4ccccc4)c4ccccc43)c3ccccc32)cc1
inactive: 786-0 > 100 µM | A549 > 100 µM | COLO 205 > 100 µM | EKVX > 100 µM | HT-29 > 100 µM | K562 > 100 µM | LOX IMVI > 100 µM | MDA-N > 100 µM | NCI-H226 > 100 µM | NCI-H23 > 100 µM | NCI-H460 > 100 µM | OVCAR-5 > 100 µM | OVCAR-8 > 100 µM | SK-MEL-28 > 100 µM | SK-MEL-2 > 100 µM | SK-OV-3 > 100 µM | SNB-75 > 100 µM | TK-10 > 100 µM | U-251 > 100 µM

CC12CC(c3ccccc3O1)C(C(=O)Nc1ccc(F)cc1)C(=O)N2 (stereo not given)
inactive: 786-0 > 100 µM | A549 91 µM | COLO 205 > 100 µM | EKVX 45.2 µM | HT-29 89.9 µM | K562 47.9 µM | LOX IMVI > 100 µM | MCF7 > 100 µM | MDA-N > 100 µM | NCI-H23 44.6 µM | NCI-H460 89.7 µM | OVCAR-5 > 100 µM | OVCAR-8 36 µM | SK-MEL-28 > 100 µM | SK-MEL-2 > 100 µM | SK-OV-3 > 100 µM | U-251 > 100 µM

COc1c(C)c(C/C=C(\C)CC/C=C(\C)CCC=C(C)C)c(OC)c(OC)c1OC
inactive: 786-0 > 100 µM | A549 49.3 µM | COLO 205 > 100 µM | EKVX 83.9 µM | HT-29 76.2 µM | K562 > 100 µM | LOX IMVI 76.6 µM | MCF7 44.2 µM | MDA-N 76.9 µM | NCI-H23 > 100 µM | NCI-H460 > 100 µM | OVCAR-5 > 100 µM | OVCAR-8 > 100 µM | SK-MEL-2 > 100 µM | SK-OV-3 > 100 µM | SNB-75 > 100 µM | TK-10 > 100 µM | U-251 > 100 µM

CCOC(=O)c1ccc(-c2onc(C)c2Br)[nH]1
inactive: 786-0 43.4 µM | A549 33 µM | COLO 205 50.2 µM | EKVX 37 µM | HT-29 39.5 µM | K562 80.2 µM | MCF7 27.7 µM | MDA-N 66.4 µM | NCI-H23 46.8 µM | NCI-H460 > 100 µM | OVCAR-5 > 100 µM | OVCAR-8 37.4 µM | SK-MEL-28 > 100 µM | SK-MEL-2 76 µM | SK-OV-3 76.6 µM | SNB-75 41.7 µM | TK-10 56.9 µM | U-251 36.4 µM

CCc1n[nH]c(=O)n1N=C(c1ccccc1)c1ccccc1
inactive: 786-0 > 100 µM | A549 > 100 µM | COLO 205 > 100 µM | EKVX 32 µM | HT-29 > 100 µM | K562 > 100 µM | LOX IMVI > 100 µM | MCF7 > 100 µM | MDA-N > 100 µM | NCI-H226 > 100 µM | NCI-H23 > 100 µM | NCI-H460 > 100 µM | OVCAR-5 58.1 µM | OVCAR-8 > 100 µM | SK-MEL-28 > 100 µM | SK-MEL-2 > 100 µM | TK-10 > 100 µM | U-251 > 100 µM
